Results on three compounds are retold here after patent EP3046573B1, “AMYLIN ANALOGUES” (Zealand Pharma A/S, priority 2013, dated 2015).

In general, EC50 refers to the concentration giving half of the maximal effect.

Data set [1] addresses T1, human amylin receptor 3 (hAMYR3) consisting of hCTR2 co-expressed with human Receptor Activity Modifying Protein 3 (hRAMP3) (Homo sapiens, UniProt O60896+P30988).
T1 construct: expressed in transfected cells
T1 sequence (P30988 25-474): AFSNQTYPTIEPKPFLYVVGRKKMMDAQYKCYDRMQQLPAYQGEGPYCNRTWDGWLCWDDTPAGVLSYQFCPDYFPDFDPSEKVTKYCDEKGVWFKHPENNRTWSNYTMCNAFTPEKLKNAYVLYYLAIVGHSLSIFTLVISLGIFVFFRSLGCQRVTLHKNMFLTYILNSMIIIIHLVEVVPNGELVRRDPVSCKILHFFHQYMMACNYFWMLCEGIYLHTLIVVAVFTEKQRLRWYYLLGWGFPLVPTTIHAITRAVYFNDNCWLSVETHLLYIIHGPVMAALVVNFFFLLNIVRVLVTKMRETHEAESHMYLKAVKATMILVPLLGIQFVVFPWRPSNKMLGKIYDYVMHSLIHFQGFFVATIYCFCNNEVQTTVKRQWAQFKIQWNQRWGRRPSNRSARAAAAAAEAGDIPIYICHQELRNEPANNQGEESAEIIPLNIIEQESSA
T1 sequence (O60896 24-148 partner): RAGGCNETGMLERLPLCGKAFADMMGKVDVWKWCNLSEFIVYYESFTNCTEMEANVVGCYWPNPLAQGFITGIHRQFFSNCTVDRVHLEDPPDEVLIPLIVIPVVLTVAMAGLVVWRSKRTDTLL
Nature of the data set: hAMYR3 assay: induction of cAMP (AlphaScreen cAMP Assay kit) in COS7 cells expressing hAMYR3. In kind it is cell-based. The method, boiled down: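 cAMP accumulation read by AlphaScreen in lysates of RAMP-naive COS7 cells stably transfected with hCTR2 plus hRAMP3. Cells exposed to peptide dilutions for 15 min, 37° C, with 100 µM IBMX; 4PL fitting gave EC50 and efficacy relative to pramlintide.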
(In Alpha technology, singlet oxygen from a donor bead excites a nearby acceptor bead.)

In data set [2] the target is T2, human calcitonin receptor (hCTR2) (Homo sapiens, UniProt P30988).
T2 construct: expressed in transfected cells
T2 sequence (P30988 25-474): T1 sequence (P30988 25-474)
Nature of the data set: hCTR2 assay: induction of cAMP (AlphaScreen cAMP Assay kit) in COS7 cells expressing hCTR2. Format: cell-based. The method, boiled down:
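cAMP read-out by AlphaScreen after cell lysis; EC50 and % efficacy vs pramlintide from 4-parameter logistic fitting. Agonist stimulation: hCTR2-COS7 stable cells, 15 min, 37° C, 100 µM IBMX, 0.1% casein, Tyrode/HEPES pH 7.4.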

Data set [3] is described as follows: Solubility assessment (turbidity absorbance at 325 nm). In kind it is physicochemical. The note with it: stock 2 mg/ml diluted 1:1, ambient temperature (typically 25°C), n=1; for Solubility, Acetate buffer pH 4: 100 mM acetate buffer pH 4.0; for Solubility, Acetate buffer pH 5: 100 mM acetate buffer pH 5.0; for Solubility, Histidine buffer pH 6: 100 mM histidine buffer pH 6.0; for Solubility, Histidine buffer pH 7: 100 mM histidine buffer pH 7.0; for Solubility, Phosphate buffer pH 6: 100 mM phosphate buffer pH 6.0; for Solubility, Phosphate buffer pH 7: 100 mM phosphate buffer pH 7.0; for Solubility, Phosphate buffer pH 7.5: 100 mM phosphate buffer pH7.5. The method, boiled down:
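Turbidimetric screen across pH 4.0–7.5 in 100 mM acetate, histidine and phosphate buffers. A 2 mg/ml peptide stock (pH 2.5) was diluted 1:1 into each, then A325 measured at ambient temperature; values ≤ 0.02 AU denoted solubility of 1 mg/ml or more.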

Numbered stars: 1 amine (or outer) side, 2 acyl side, 3 side chain; on linkers, the order of the positions; unused ones are H or OH. Bridge positions count the residues as written; N and C are the ends. Square brackets hold non-standard residues; d marks the D form. Peptide text beside a SMILES is read from it. * marks the point of attachment. C20 diacid = O=C(O)CCCCCCCCCCCCCCCCCCC(=O)*; γGlu = O=C(O)[C@H](CCC(=O)[*:2])N[*:1]; NMeI = CC[C@H](C)[C@H](NC)C(=O)O; NMeA = CN[C@@H](C)C(=O)O; Sar = CNCC(=O)O

`CC[C@H](C)[C@@H](C(=O)N[C@@H](CC(C)C)C(=O)N[C@@H](CO)C(=O)N[C@@H](CO)C(=O)N[C@H](C(=O)N[C@@H](CC(N)=O)C(=O)N[C@H](C(=O)NCC(=O)N[C@@H](CO)C(=O)N[C@@H](CC(N)=O)C(=O)N[C@H](C(=O)N(C)[C@@H](C)C(N)=O)[C@@H](C)O)C(C)C)[C@@H](C)O)N(C)C(=O)[C@H](C)NC(=O)CN(C)C(=O)[C@H](Cc1ccccc1)NC(=O)[C@H](CC(N)=O)NC(=O)[C@H](CC(N)=O)NC(=O)[C@H](CO)NC(=O)[C@H](CO)NC(=O)[C@H](CCCNC(=N)N)NC(=O)[C@H](Cc1c[nH]cn1)NC(=O)[C@H](CC(C)C)NC(=O)[C@H](Cc1ccccc1)NC(=O)[C@H](CCC(=O)O)NC(=O)[C@H](C)NC(=O)[C@H](CC(C)C)NC(=O)[C@H](CCCNC(=N)N)NC(=O)[C@H](CCC(N)=O)NC(=O)[C@@H](NC(=O)[C@H](C)NC(=O)[C@@H]1CSSC[C@H](NC(=O)[C@H](CCCNC(=N)N)NC(=O)CC[C@H](NC(=O)CCCCCCCCCCCCCCCCCCC(=O)O)C(=O)O)C(=O)N[C@@H](CC(N)=O)C(=O)N[C@@H]([C@@H](C)O)C(=O)N[C@@H](C)C(=O)N[C@@H]([C@@H](C)O)C(=O)N1)[C@@H](C)O` [Compound 102, [19CD]-isoGlu-RC()NTATC()ATQRLAEFLHRSSNNF-Gly(Me)-A-Ile(Me)-LSSTNVGSNT-Ala(Me)-NH2] ({C20 diacid-γGlu}-RCNTATCATQRLAEFLHRSSNNF[Sar]A[NMeI]LSSTNVGSNT[NMeA]-NH2; disulfide 2-7) gave a concentration giving a half-maximal response (EC50) in data set [1] of 1 nM. Also, the half-maximal effective concentration (EC50) in data set [2] stood at 0.42 nM. In addition, in data set [3], the “Solubility, Acetate buffer pH 4” value is on record as “SS (SS indicates solubility ≥ 1mg/ml)”; the “Solubility, Acetate buffer pH 5” value is “II (II indicates solubility ≤ 1 mg/ml)”; the “Solubility, Histidine buffer pH 6” value is recorded as “SS (SS indicates solubility ≥ 1mg/ml)”; the “Solubility, Histidine buffer pH 7” value is “SS (SS indicates solubility ≥ 1mg/ml)”. Also, in data set [3], the “Solubility, Phosphate buffer pH 6” value is on record as “II (II indicates solubility ≤ 1 mg/ml)”; the “Solubility, Phosphate buffer pH 7” value is on record as “SS (SS indicates solubility ≥ 1mg/ml)”; the “Solubility, Phosphate buffer pH 7.5” value is given as “SS (SS indicates solubility ≥ 1mg/ml)”.

As for `CC[C@H](C)[C@@H](C(=O)N[C@@H](CC(C)C)C(=O)N[C@@H](CO)C(=O)N[C@@H](CO)C(=O)N[C@H](C(=O)N[C@@H](CC(N)=O)C(=O)N[C@H](C(=O)NCC(=O)N[C@@H](CO)C(=O)N[C@@H](CC(N)=O)C(=O)N[C@H](C(=O)N(C)[C@H](C(N)=O)[C@@H](C)CC)[C@@H](C)O)C(C)C)[C@@H](C)O)N(C)C(=O)[C@H](C)NC(=O)CN(C)C(=O)[C@H](Cc1ccccc1)NC(=O)[C@H](CC(N)=O)NC(=O)[C@H](CC(N)=O)NC(=O)[C@H](CO)NC(=O)[C@H](CO)NC(=O)[C@H](CCCNC(=N)N)NC(=O)[C@H](Cc1c[nH]cn1)NC(=O)[C@H](CC(C)C)NC(=O)[C@H](Cc1ccccc1)NC(=O)[C@H](CCC(=O)O)NC(=O)[C@H](C)NC(=O)[C@H](CC(C)C)NC(=O)[C@H](CCCNC(=N)N)NC(=O)[C@H](CCC(N)=O)NC(=O)[C@@H](NC(=O)[C@H](C)NC(=O)[C@@H]1CSSC[C@H](NC(=O)[C@H](CCCNC(=N)N)NC(=O)CC[C@H](NC(=O)CCCCCCCCCCCCCCCCCCC(=O)O)C(=O)O)C(=O)N[C@@H](CC(N)=O)C(=O)N[C@@H]([C@@H](C)O)C(=O)N[C@@H](C)C(=O)N[C@@H]([C@@H](C)O)C(=O)N1)[C@@H](C)O` [Compound 103, [19CD]-isoGlu-RC()NTATC()ATQRLAEFLHRSSNNF-Gly(Me)-A-Ile(Me)-LSSTNVGSNT-Ile(Me)-NH2H2] ({C20 diacid-γGlu}-RCNTATCATQRLAEFLHRSSNNF[Sar]A[NMeI]LSSTNVGSNT[NMeI]-NH2; disulfide 2-7), the EC50 in data set [1] is 5.1 nM. Further, in data set [2], the concentration giving a half-maximal response (EC50) was 0.65 nM. Also, in data set [3], the “Solubility, Acetate buffer pH 4” value was “SS (SS indicates solubility ≥ 1mg/ml)”; the “Solubility, Acetate buffer pH 5” value is “SS (SS indicates solubility ≥ 1mg/ml)”; the “Solubility, Histidine buffer pH 6” value is listed as “SS (SS indicates solubility ≥ 1mg/ml)”; the “Solubility, Histidine buffer pH 7” value was “SS (SS indicates solubility ≥ 1mg/ml)”. Also, in data set [3], the “Solubility, Phosphate buffer pH 6” value is on record as “II (II indicates solubility ≤ 1 mg/ml)”; the “Solubility, Phosphate buffer pH 7” value is listed as “SS (SS indicates solubility ≥ 1mg/ml)”; the “Solubility, Phosphate buffer pH 7.5” value is on record as “SS (SS indicates solubility ≥ 1mg/ml)”.

On to `CC[C@H](C)[C@@H](C(=O)N[C@@H](CC(C)C)C(=O)N[C@@H](CO)C(=O)N[C@@H](CO)C(=O)N[C@H](C(=O)N[C@@H](CC(N)=O)C(=O)N[C@H](C(=O)NCC(=O)N[C@@H](CO)C(=O)N[C@@H](CC(N)=O)C(=O)N[C@H](C(=O)N1CCC[C@@H]1C(N)=O)[C@@H](C)O)C(C)C)[C@@H](C)O)N(C)C(=O)[C@H](C)NC(=O)CN(C)C(=O)[C@H](Cc1ccccc1)NC(=O)[C@H](CC(N)=O)NC(=O)[C@H](CC(N)=O)NC(=O)[C@H](CO)NC(=O)[C@H](CO)NC(=O)[C@H](CCCNC(=N)N)NC(=O)[C@H](Cc1c[nH]cn1)NC(=O)[C@H](CC(C)C)NC(=O)[C@H](Cc1ccccc1)NC(=O)[C@H](CCC(=O)O)NC(=O)[C@H](C)NC(=O)[C@H](CC(C)C)NC(=O)[C@H](CCCNC(=N)N)NC(=O)[C@H](CCC(N)=O)NC(=O)[C@@H](NC(=O)[C@H](C)NC(=O)[C@@H]1CSSC[C@H](NC(=O)[C@H](CCCNC(=N)N)NC(=O)CC[C@H](NC(=O)CCCCCCCCCCCCCCCCCCC(=O)O)C(=O)O)C(=O)N[C@@H](CC(N)=O)C(=O)N[C@@H]([C@@H](C)O)C(=O)N[C@@H](C)C(=O)N[C@@H]([C@@H](C)O)C(=O)N1)[C@@H](C)O` [Compound 104, [19CD]-isoGlu-RC()NTATC()ATQRLAEFLHRSSNNF-Gly(Me)-A-Ile(Me)-LSSTNVGSNT-DPro-NH2] ({C20 diacid-γGlu}-RCNTATCATQRLAEFLHRSSNNF[Sar]A[NMeI]LSSTNVGSNT[dP]-NH2; disulfide 2-7), for which the midpoint of the response in data set [1], the EC50, lay at 4.8 nM. For the same compound, in data set [2], the concentration for a half-maximal effect (EC50) is 0.7 nM. Further, in data set [3], the “Solubility, Acetate buffer pH 4” value is reported as “SS (SS indicates solubility ≥ 1mg/ml)”; the “Solubility, Acetate buffer pH 5” value is listed as “SS (SS indicates solubility ≥ 1mg/ml)”; the “Solubility, Histidine buffer pH 6” value was “SS (SS indicates solubility ≥ 1mg/ml)”; the “Solubility, Histidine buffer pH 7” value is “SS (SS indicates solubility ≥ 1mg/ml)”. Also, in data set [3], the “Solubility, Phosphate buffer pH 6” value is “II (II indicates solubility ≤ 1 mg/ml)”; the “Solubility, Phosphate buffer pH 7” value is “SS (SS indicates solubility ≥ 1mg/ml)”; the “Solubility, Phosphate buffer pH 7.5” value was “SS (SS indicates solubility ≥ 1mg/ml)”.
